Tests used:
[1] = target: recombinant RORγ Ligand Binding Domain (LBD) protein (Homo sapiens (Human), UniProt P51449); test: Radio-Ligand RORγ Binding Assay (Assay 1); conditions: competition with 25-hydroxy [26,27-3H]-cholesterol, SPA; Table 8; read-out: RORγ Binding Ki Range*
How it was run: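 Scintillation proximity competition binding of 8.6 nM stock 25-hydroxy[26,27-3H]cholesterol to 24 nM stock 6×His-GST-tagged human RORγ LBD, in 50 mM HEPES pH 7.4 with NaCl, MgCl2, glycerol, CHAPS, β-octylglucopyranoside and DTT, room temperature. Inhibition referenced to DMSO and 10 μM T0901317; IC50 by four-parameter fit, converted to Ki using radioligand concentration and KD.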

[2] = target: full-length RORγt in Jurkat cells (Homo sapiens (Human), UniProt P51449); test: RORγt 5xRORE Assay in Jurkat Cells (Assay 2); assay type: cell-based; conditions: Nanoluc luciferase reporter, 16-18 hrs, Table 8, read-out: RORγt5X IC50 Range*
How it was run: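 Jurkat cells co-transfected with full-length RORγt expression plasmid and a 5×RORE-driven secreted Nanoluc reporter, then plated at 80,000 cells/well in phenol-red-free RPMI with 10% delipidated FBS. Compounds added at 0.1% DMSO for 16–18 h at 37 °C; supernatant luciferase read for inverse agonism.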

full-length RORγt in Jurkat cells, sequence (P51449 other isoform, or with tags, fused parts or gaps): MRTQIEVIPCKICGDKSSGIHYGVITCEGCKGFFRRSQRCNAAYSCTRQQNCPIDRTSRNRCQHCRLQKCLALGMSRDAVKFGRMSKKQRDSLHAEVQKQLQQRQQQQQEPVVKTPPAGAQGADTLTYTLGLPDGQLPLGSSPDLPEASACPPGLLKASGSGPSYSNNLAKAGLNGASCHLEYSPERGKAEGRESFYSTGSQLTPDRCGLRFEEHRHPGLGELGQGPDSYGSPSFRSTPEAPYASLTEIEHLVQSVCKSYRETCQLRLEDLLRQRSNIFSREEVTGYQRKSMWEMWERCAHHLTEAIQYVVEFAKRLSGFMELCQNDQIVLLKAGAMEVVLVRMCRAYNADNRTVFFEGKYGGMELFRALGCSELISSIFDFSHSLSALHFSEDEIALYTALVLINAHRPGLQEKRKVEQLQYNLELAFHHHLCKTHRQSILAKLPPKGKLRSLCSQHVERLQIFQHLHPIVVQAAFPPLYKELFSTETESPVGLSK
recombinant RORγ Ligand Binding Domain (LBD) protein, sequence (P51449 269-508): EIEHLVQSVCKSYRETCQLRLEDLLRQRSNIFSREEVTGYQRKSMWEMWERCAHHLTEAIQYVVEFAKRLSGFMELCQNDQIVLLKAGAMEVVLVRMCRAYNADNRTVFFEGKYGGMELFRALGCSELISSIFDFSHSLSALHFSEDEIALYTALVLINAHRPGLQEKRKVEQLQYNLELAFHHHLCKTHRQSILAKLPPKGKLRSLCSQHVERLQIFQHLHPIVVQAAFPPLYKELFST

Row | Ki [1] [nM] | IC50 [2] [nM] | Compound
1 | < 100 | < 100 | CCS(=O)(=O)c1ccc(CC(=O)Nc2nc3c(s2)CN(Cc2ccc(C(F)(F)F)c(C)n2)[C@H]3C(C)C)cc1 [I-A33]
2 | < 100 | < 100 | CCS(=O)(=O)c1ccc(CC(=O)Nc2nc3c(s2)CN(Cc2ccc(-c4nnnn4C)cc2)[C@H]3C(C)C)cc1 [I-A40]
3 | < 100 | < 100 | CCS(=O)(=O)c1ccc(CC(=O)Nc2nc3c(s2)CN(Cc2ccc(-c4nnn(C)n4)cc2)[C@H]3C(C)C)cc1 [I-A42]
4 | < 100 | < 100 | CCS(=O)(=O)c1ccc(CC(=O)Nc2nc3c(s2)CN(Cc2ccc(C(F)(F)F)cc2C#N)[C@H]3C(C)C)cc1 [I-A45]
5 | < 100 | < 100 | CCS(=O)(=O)c1ccc(CC(=O)Nc2nc3c(s2)CN(Cc2ncc(C#N)cc2F)[C@H]3C(C)C)cc1 [I-A46]
6 | < 100 | < 100 | CCS(=O)(=O)c1ccc(CC(=O)Nc2nc3c(s2)CN([C@@H](C)c2ccc(Cl)cn2)[C@H]3C(C)C)cc1 [I-A48]
7 | < 100 | < 100 | CCS(=O)(=O)c1ccc(CC(=O)Nc2nc3c(s2)CN(Cc2cc(C)c(C#N)cn2)[C@H]3C(C)C)cc1 [I-A49]
8 | < 100 | < 100 | CCS(=O)(=O)c1ccc(CC(=O)Nc2nc3c(s2)CN(Cc2ccc(C#N)c(C)n2)[C@H]3C(C)C)cc1 [I-A50]
9 | < 100 | < 100 | CCS(=O)(=O)c1ccc(CC(=O)Nc2nc3c(s2)CN(Cc2ccc(C#N)c(OC)n2)[C@H]3C(C)C)cc1 [I-A51]
10 | < 100 | < 100 | CCS(=O)(=O)c1ccc(CC(=O)Nc2nc3c(s2)CN(Cc2ccc(OC(F)F)cn2)[C@H]3C(C)C)cc1 [I-A54]
11 | < 100 | < 100 | CCS(=O)(=O)c1ccc(CC(=O)Nc2nc3c(s2)CN(Cc2cnc(C(F)(F)F)nc2)[C@H]3C(C)C)cc1 [I-A58]
12 | < 100 | < 100 | CCS(=O)(=O)c1ccc(CC(=O)Nc2nc3c(s2)CN(Cc2ccc(C4CC4)cc2)[C@H]3C(C)C)cc1 [I-A59]
13 | < 100 | < 100 | CCS(=O)(=O)c1ccc(CC(=O)Nc2nc3c(s2)CN(Cc2ccc(C(=O)OC)cc2)[C@H]3C(C)C)cc1 [I-A60]
14 | < 100 | < 100 | CCS(=O)(=O)c1ccc(CC(=O)Nc2nc3c(s2)CN(Cc2ccc(C(F)F)cc2)[C@H]3C(C)C)cc1 [I-A61]
15 | < 100 | < 100 | CCS(=O)(=O)c1ccc(CC(=O)Nc2nc3c(s2)CN(Cc2ccc(C(F)(F)F)nc2)[C@H]3C(C)C)cc1 [I-A62]
16 | < 100 | < 100 | CCc1ccc(CN2Cc3sc(NC(=O)Cc4ccc(S(=O)(=O)CC)cc4)nc3[C@@H]2C(C)C)cc1 [I-A63]
17 | < 100 | < 100 | CCS(=O)(=O)c1ccc(CC(=O)Nc2nc3c(s2)CN(Cc2ccc(C)cc2)[C@H]3C(C)C)cc1 [I-A64]
18 | < 100 | < 100 | CC(C)[C@H]1c2nc(NC(=O)Cc3ccc(S(C)(=O)=O)cc3)sc2CN1Cc1ccc(Cl)cc1 [I-B1, (S)—N-(5-(4-chlorobenzyl)-4-isopropyl-5,6-dihydro-4H-pyrrolo[3,4-d]thiazol-2-yl)-2-(4-(methylsulfonyl)phenyl)acetamide]
19 | < 100 | < 100 | Cc1cc(CN2Cc3sc(NC(=O)Cc4ccc(S(C)(=O)=O)cc4)nc3[C@@H]2C(C)C)ccc1C#N [I-B7]
20 | < 100 | < 100 | CC(C)[C@H]1c2nc(NC(=O)Cc3ccc(S(C)(=O)=O)cc3)sc2CN1Cc1ccc(C#N)c(Cl)c1 [I-B8]
21 | < 100 | < 100 | CC(C)[C@H]1c2nc(NC(=O)Cc3ccc(S(C)(=O)=O)cc3)sc2CN1Cc1ccc(-c2nnn(C)n2)cc1 [I-B9]

Second part, the compound before the results:

Row | Compound | Ki [1] [nM] | IC50 [2] [nM]
22 | CCS(=O)(=O)c1ccc(CC(=O)Nc2nc3c(s2)CN([C@H](C)c2ccc(C(F)(F)F)cc2)[C@H]3C(C)C)cc1 [I-A34] | < 100 | < 100
23 | CCS(=O)(=O)c1ccc(CC(=O)Nc2nc3c(s2)CN([C@@H](C)c2ccc(C(F)(F)F)cc2)[C@H]3C(C)C)cc1 [I-A35] | < 100 | < 100
24 | CCS(=O)(=O)c1ccc(CC(=O)Nc2nc3c(s2)CN([C@H](C)c2ccc(C(F)(F)F)cc2F)[C@H]3C(C)C)cc1 [I-A36] | < 100 | < 100
25 | CCS(=O)(=O)c1ccc(CC(=O)Nc2nc3c(s2)CN([C@@H](C)c2ccc(C(F)(F)F)cc2F)[C@H]3C(C)C)cc1 [I-A37] | < 100 | < 100
26 | CCS(=O)(=O)c1ccc(CC(=O)Nc2nc3c(s2)CN([C@H](C)c2ccc(Cl)cc2F)[C@H]3C(C)C)cc1 [I-A38] | < 100 | < 100
27 | CCS(=O)(=O)c1ccc(CC(=O)Nc2nc3c(s2)CN([C@@H](C)c2ccc(Cl)cc2F)[C@H]3C(C)C)cc1 [I-A39] | < 100 | < 100
28 | CCS(=O)(=O)c1ccc(CC(=O)Nc2nc3c(s2)CN(C[C@H]2CN(C(=O)OC(C)(C)C)CCO2)[C@H]3C(C)C)cc1 [I-A41] | < 100 | < 100
29 | CCS(=O)(=O)c1ccc(CC(=O)Nc2nc3c(s2)CN(C[C@@H]2CN(C(=O)OC(C)(C)C)CCO2)[C@H]3C(C)C)cc1 [I-A43] | < 100 | < 100
30 | CCS(=O)(=O)c1ccc(CC(=O)Nc2nc3c(s2)CN(C[C@H]2CC[C@H](C(=O)OC)CC2)[C@H]3C(C)C)cc1 [I-A44] | < 100 | < 100
31 | CCS(=O)(=O)c1ccc(CC(=O)Nc2nc3c(s2)CN([C@H](C)c2ccc(Cl)cn2)[C@H]3C(C)C)cc1 [I-A47] | < 100 | < 100
32 | CCS(=O)(=O)c1ccc(CC(=O)Nc2nc3c(s2)CN([C@H](C)c2ncc(Cl)cc2F)[C@H]3C(C)C)cc1 [I-A53] | < 100 | < 100
33 | CC(C)[C@H]1c2nc(NC(=O)Cc3ccc(S(C)(=O)=O)cc3)sc2CN1Cc1ccc(C(F)(F)F)cn1 [I-B4] | < 100 | < 100
34 | CC(C)[C@H]1c2nc(NC(=O)Cc3ccc(S(C)(=O)=O)cc3)sc2CN1Cc1ccc(C(F)(F)F)nc1 [I-B5] | < 100 | < 100
35 | CC(C)[C@H]1c2nc(NC(=O)Cc3ccc(S(C)(=O)=O)cc3)sc2CN1[C@@H](C)c1ccc(C#N)cc1Cl [I-B10] | < 100 | < 100
36 | CC(C)[C@H]1c2nc(NC(=O)Cc3ccc(S(C)(=O)=O)cc3)sc2CN1[C@H](C)c1ccc(C#N)c(F)c1 [I-B11] | < 100 | < 100
37 | CC(C)[C@H]1c2nc(NC(=O)Cc3ccc(S(C)(=O)=O)cc3)sc2CN1[C@@H](C)c1ccc(C#N)c(F)c1 [I-B12] | < 100 | < 100
38 | Cc1nc(C(F)(F)F)ccc1CN1Cc2sc(NC(=O)Cc3ccc(S(C)(=O)=O)cc3)nc2[C@@H]1C(C)C [I-B13] | < 100 | < 100
39 | CC(C)[C@H]1c2nc(NC(=O)Cc3ccc(S(C)(=O)=O)cc3)sc2CN1[C@H](C)c1ccc(C#N)cc1 [I-B14] | < 100 | < 100
40 | CC(C)[C@H]1c2nc(NC(=O)Cc3ccc(S(C)(=O)=O)cc3)sc2CN1[C@@H](C)c1ccc(C#N)cc1 [I-B15] | < 100 | < 100
41 | CC(C)[C@H]1c2nc(NC(=O)Cc3ccc(S(C)(=O)=O)cc3)sc2CN1Cc1ccc(C#N)cc1Cl [I-B16] | < 100 | < 100
42 | CC(C)[C@H]1c2nc(NC(=O)Cc3ccc(S(C)(=O)=O)cc3)sc2CN1Cc1ccc(C#N)cc1F [I-B17] | < 100 | < 100

From patent US9868748B2, “Thiazolopyrrolidine inhibitors of ROR- γ” (Vitae Pharmaceuticals, Inc., priority 2013, dated 2018)
